Assay [1] has as its system C57BL/6 line wild type (WT) male mice. In words: Test Example 3: alertness effect (sleep latency, EEG/EMG) by dark period oral administration to wild type mice. The class given is in vivo, mouse. Particulars: before lights off, solvent 0.23 hour. The protocol:
The experimental animals used were C57BL/6 line wild type (WT) male mice. Electroencephalogram and electromyogram measuring electrodes were surgically embedded into 13-week-old mice under isoflurane anesthesia. After surgery, and following conditioning to the illumination cycle and experimentation procedure, electroencephalogram and electromyogram measurement were carried out and mice with proper electroencephalogram and electromyogram recordings were supplied for the experiment. The solvent (0 mg/kg) or a solution of compound (I) dissolved in the solvent (1, 3 or 10 mg/kg) was orally administered 30 to 15 minutes before lighting was turned off. The solvent used was a 0.1 mol/L hydrochloric acid solution containing 5% (v/v) DMSO and 5% (v/v) Kolliphor^R EL. The electroencephalogram and electromyogram were recorded for about 24 hours, from 1 hour before lighting was turned off. The mice were repeatedly used, with a washout period of 2 days or longer. The electroencephalogram and electromyogram data obtained for each mouse were used to assess the sleep stage every epoch (10 seconds), using sleep analysis software (SleepSign: Kissei Comtec Co., Ltd.). […] Using 16 mice in each administered group, the sleep latency in a solvent-administered group (control group) and a compound (I)-administered group were compared by a Dunnet-type multiple comparison test following survival time analysis in consideration of the number of experiments and use of the same individuals, with a significance level of 5% at both ends for each.

A further assay deals with T1, hOX1R (Homo sapiens, UniProt O43613).
T1 construct: expressed in transfected cells; host or cells: HEK293
T1 sequence (O43613 1-425): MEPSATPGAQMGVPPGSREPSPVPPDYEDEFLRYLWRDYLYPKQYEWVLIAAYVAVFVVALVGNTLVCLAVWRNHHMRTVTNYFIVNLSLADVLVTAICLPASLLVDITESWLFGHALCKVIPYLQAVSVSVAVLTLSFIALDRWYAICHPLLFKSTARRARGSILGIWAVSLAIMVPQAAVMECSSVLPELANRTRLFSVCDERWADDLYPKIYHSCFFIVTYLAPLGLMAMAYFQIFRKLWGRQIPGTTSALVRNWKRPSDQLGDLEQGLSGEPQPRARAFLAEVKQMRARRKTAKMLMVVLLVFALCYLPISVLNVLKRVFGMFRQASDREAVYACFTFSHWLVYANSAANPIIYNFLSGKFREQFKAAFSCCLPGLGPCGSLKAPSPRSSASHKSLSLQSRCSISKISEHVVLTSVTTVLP
In words: Test Example 1-1: activating activity for OX1R (intracellular calcium, HEK293 with forced expression). The assay is classed as cell-based. Particulars: calcium fluorescence, 3×10^-10 M to 1×10^-7 M, 10 nM OX-A as 100%. Here is the method: Human Embryonic Kidney cells 293 (HEK293) cells with forced expression of hOX1R and hOX2R were seeded in a 384-well microplate (Greiner) at 10,000 per well and cultured for 24 hours in high-glucose-DMEM (FujiFilm Corp.-Wako Pure Chemical Industries, Ltd.) containing added 10% FBS (Thermo Scientific) and 1% Penicillin-Streptomycin (FujiFilm Corp.-Wako Pure Chemical Industries, Ltd.). After removing the medium, there was added 40 μL of assay buffer (20 mM HEPES (Sigma-Aldrich Japan, KK.), Hank's Balanced Salt Solution (Gibco), 0.1% BSA (Sigma-Aldrich Japan, KK.), 0.1% Pluronic F-127 (Biotium, Inc.)) containing Calcium 4 dye (Molecular Device Corporation) and 2.5 mM probenecid (Sigma-Aldrich Japan, KK.), and the mixture was incubated for 60 minutes. After further adding 20 μL of assay buffer, 20 μL of assay buffer containing the test compound was added and reaction was initiated. Change in intracellular calcium ion concentration by the reaction was measured based on the fluorescence intensity ratio in terms of the fluorescence value with dual wavelength excitation at 480 nm and 540 nm, using FDSS7000 (Hamamatsu Photonics, K.K.). The test compound was dissolved in DMSO to 10 mM, and diluted with assay buffer to a final concentration of from 3×10^−10 M to 1×10^−7 M (DMSO final concentration of 0.1%). […]

The subject of assay [2] is orexin/ataxin 3 mice (Tg mice). As to the kind of experiment: Test Example 4: alertness effect and cataplexy-like behavior inhibiting effect by dark period oral administration to orexin/ataxin 3 mice. The assay is classed as in vivo, mouse. Particulars: for DREM latency: solvent 1.16 hours, assessed up to maximum 4 hours; for sleep latency: before lights off, solvent 0.21 hour. An excerpt:
The experimental animals used were orexin/ataxin 3 mice (orexin/ataxin-3 Tg/+ (hereunder referred to as “Tg mice”), Hara et al., Neuron, 30, 345-54, 2001) with a C57BL/6 genetic background, with wild type mice (hereunder referred to as “WT mice”) of the same litter as the control. Electroencephalogram and electromyogram measuring electrodes were surgically embedded into 12-week-old mice (+2 weeks) under isoflurane anesthesia. After surgery, and following conditioning to the illumination cycle and experimentation procedure, electroencephalogram and electromyogram measurement were carried out and mice with proper electroencephalogram and electromyogram recording were supplied for the experiment. The solvent (0 mg/kg) or a specimen (solution of compound (I) dissolved in the solvent (0.3, 1 or 3 mg/kg)) was orally administered 30 to 15 minutes before lighting was turned off. The solvent used was a 0.1 mol/L hydrochloric acid solution containing 5% (v/v) DMSO and 5% (v/v) Kolliphor^R EL. The electroencephalogram and electromyogram were recorded for about 24 hours, from 1 hour before lighting was turned off. The mice were repeatedly used, with a washout period of 2 days or longer. The electroencephalogram and electromyogram data obtained for each mouse were used to assess the sleep stage every epoch (10 seconds), using sleep analysis software (SleepSign: Kissei Comtec Co., Ltd.), up to a maximum of 4 hours. For the purpose of this experiment, cataplexy-like symptoms were defined as REM sleep appearing immediately after wakefulness (direct transitions from wake to REM sleep (DREM)) for a contiguous period of 4 epochs or longer. DREM in mice is an analog of cataplexy (Exp Neurol. 2009:217:46-54). The time until initial sleep appeared after lighting out for each mouse (sleep for contiguous 8 epochs or longer, excluding DREM) (sleep latency) and the time until initial DREM appeared (DREM latency) were measured. The numbers of mice were 8 in the solvent-administered group and 14 in the compound (I)-administered group. The sleep latency in a disease control group and a compound (I)-administered group were compared by a Dunnet-type multiple comparison test following survival time analysis in consideration of the number of experiments and use of the same individuals, with a significance level of 5% at both ends for each. The DREM latency in the normal control group and disease control group were compared by survival time analysis in consideration of the number of experiments and use of the same individuals. Cases with significance in the statistical test for the disease control group and the compound (I)-administered group were compared by a Dunnet-type multiple comparison test following survival time analysis in consideration of the number of experiments and use of the same individuals, with a significance level of 5% at both ends for each.

The test system of another assay is Male C57BL/6NCrl mice. In words: Test Example 2: increase in spontaneous movement. Particulars: 10 mg/kg orally, measured 2 hours after administration, control group = 100%. The class given is in vivo, mouse. Here is the method: Increased movement in mice is an indicator of increased alertness time, higher body temperature and augmented cardiovascular parameters, as well as heightened alertness. In this test example, the alertness effect was evaluated by measuring spontaneous movement of the mice. Male C57BL/6NCrl mice (18-19 weeks old, Charles River Laboratories, Japan Inc., 4 mice in each group) were used for the experiment. Spontaneous movement was measured by using a movement measuring device (VersaMax Open Field, AccuScan Instruments, Inc.), irradiating infrared rays from the side sections of the measuring cage, and quantifying the number of times that the mice passed through the irradiated rays. After placing the mice in the measuring cage and conditioning for 3 hours, compound (I) was orally administered (10 mg/kg). Spontaneous movement was measured 2 hours after administration. The mice in the compound (I)-administered group were administered a solution of compound (I) dissolved in 0.1 mol/L hydrochloric acid containing 5% (v/v) DMSO and 5% (v/v) Kolliphor^R EL. For the control group, solvent alone without compound (I) was administered to the mice.
Spontaneous movement was represented as a percentage for the compound (I)-administered group, with spontaneous movement in the control group as 100%.

For `CO[C@@H]1CN(c2ncc(F)cn2)CC[C@@H]1[C@@H]1C[C@H]2CC[C@@H](C1)N2[C@@H](C(N)=O)C1CC1` [Compound (I), (2R)-2-cyclopropyl-2-{(1R,3S,5S)-3-[(3S,4R)-1-(5-fluoropyrimidin-2-yl)-3-methoxypiperidin-4-yl]-8-azabicyclo[3.2.1]octan-8-yl}acetamide], the sleep latency was 0.28 h in assay [1] (1 mg/kg oral); 0.44 h in assay [1] (3 mg/kg oral, significant); 2.07 h in assay [1] (10 mg/kg oral, significant). Also, the EC50 (usually the concentration that produces a half-maximal response) at hOX1R is more than 100 nM. Also, the DREM latency in assay [2] (0.3 mg/kg oral, significant) came to 1.50 h; in assay [2] (1 mg/kg oral, significant), 2.26 h; in assay [2] (3 mg/kg oral, significant), 4.00 h. The “Spontaneous movement (% of Control)” value in the assay with Male C57BL/6NCrl mice is 865 % of Control.

As for `CO[C@@H]1CN(c2ncc(F)cn2)CC[C@@H]1[C@@H]1C[C@H]2CC[C@@H](C1)N2[C@@H](C(N)=O)C1CC1` [Example 1, (2R)-2-cyclopropyl-2-{(1R,3S,5S)-3-[(3S,4R)-1-(5-fluoropyrimidin-2-yl)-3-methoxypiperidin-4-yl]-8-azabicyclo[3.2.1]octan-8-yl}acetamide], the sleep latency in assay [2] (0.3 mg/kg oral) came to 0.31 h; in assay [2] (1 mg/kg oral, significant), 0.64 h; in assay [2] (3 mg/kg oral, significant), 2.42 h.

The record behind these values is patent US20250051322A1, “CRYSTAL OF S[…], SALTS OF S[…], AND CRYSTALS THEREOF” (Eisai R&D Management Co., Ltd., priority 2022, published 2025).
